According to US20250214932A1, “T-TYPE CALCIUM CHANNEL MODULATORS COMPRISING AN AZASPIRONONANE CORE AND METHODS OF USE THEREOF” (Praxis Precision Medicines, Inc., priority 2022, published 2025):

What follows are compounds tested against Human Cav3.1 (Homo sapiens (Human), UniProt O43497) (assay: Human Cav3.1 calcium channel patch clamp assay (SyncroPatch 384PE, HEK-293 natClytin/TASK1+Cav3.1 cell line)). Conditions: patch clamp, HEK-293 natClytin/TASK1+Cav3.1 cells; class symbols; read-out: Human Cav3.1 IC50.
Format: cell-based
Experimental: Pulse generation and data collection were performed with PatchController384 V1.3.0 and DataController384 V1.2.1 (Nanion Technologies). Off-line analysis was performed using Excel and Graphpad Prism (V 8.4.2) with complete data files uploaded to Dotmatics. The access resistance and apparent membrane capacitance were estimated using built-in protocols. Current was recorded in whole cell configuration from a population of cells. The cells were lifted, triturated, and resuspended at 800,000 cells/ml. The cells were allowed to recover in the cell hotel prior to experimentation. Currents were recorded at room temperature. The external solution contained the following (in mM): NaCl 80, NMDG 60, KCl 4, MgCl2 1, CaCl2 6, glucose 5 and HEPES 10 (pH=7.4, Osmolarity ˜300 mOsm). The extracellular solution was used as the wash, reference and compound delivery solution. […] The compound plate was created at 2× concentrated in the extracellular solution. The compound was diluted to 1:2 when added to the recording well. The amount of DMSO in the extracellular solution was held constant at the level used for the highest tested concentration. For the voltage clamp experiments on Cav3.1, data were sampled at 10 KHz. After establishment of the seal and the passage in the whole cell configuration, the cells were held at −120 mV. Cav3.1 current was evoked using a 100 ms step to −20 mV (to measure resting state block), followed by a 1600 ms step to −65 mV and a second 100 ms step to −20 mV (to measure voltage dependent block). The voltage protocol was applied every 15 seconds in the absence and in the presence of the compounds under investigation. […] Current amplitude (pA) was measured in the peak 1 and 2. The average of last 3 sweeps of each liquid period (vehicle, compound under investigation, full block) was calculated. Nickel-sensitive current was used to calculate the % of inhibition in the presence of the compound under investigation.
Pulse generation and data collection were performed with PatchController384 V1.3.0 and DataController384 V1.2.1 (Nanion Technologies). Off-line analysis was performed using Excel and Graphpad Prism (V 8.4.2) with complete data files uploaded to Dotmatics. The access resistance and apparent membrane capacitance were estimated using built-in protocols. Current was recorded in whole cell configuration from a population of cells.
The cells were lifted, triturated, and resuspended at 800,000 cells/ml. The cells were allowed to recover in the cell hotel prior to experimentation. Currents were recorded at room temperature. The external solution contained the following (in mM): NaCl 80, NMDG 60, KCl 4, MgCl2 1, CaCl2 6, glucose 5 and HEPES 10 (pH=7.4, Osmolarity ˜300 mOsm). The extracellular solution was used as the wash, reference and compound delivery solution.
The compound plate was created at 2× concentrated in the extracellular solution. The compound was diluted to 1:2 when added to the recording well. The amount of DMSO in the extracellular solution was held constant at the level used for the highest tested concentration. For the voltage clamp experiments on Cav3.1, data were sampled at 10 KHz. After establishment of the seal and the passage in the whole cell configuration, the cells were held at −120 mV. Cav3.1 current was evoked using a 100 ms step to −20 mV (to measure resting state block), followed by a 1600 ms step to −65 mV and a second 100 ms step to −20 mV (to measure voltage dependent block). The voltage protocol was applied every 15 seconds in the absence and in the presence of the compounds under investigation. […] Current amplitude (pA) was measured in the peak 1 and 2. The average of last 3 sweeps of each liquid period (vehicle, compound under investigation, full block) was calculated. Nickel-sensitive current was used to calculate the % of inhibition in the presence of the compound under investigation.

Chain of Human Cav3.1 (O43497 whole entry): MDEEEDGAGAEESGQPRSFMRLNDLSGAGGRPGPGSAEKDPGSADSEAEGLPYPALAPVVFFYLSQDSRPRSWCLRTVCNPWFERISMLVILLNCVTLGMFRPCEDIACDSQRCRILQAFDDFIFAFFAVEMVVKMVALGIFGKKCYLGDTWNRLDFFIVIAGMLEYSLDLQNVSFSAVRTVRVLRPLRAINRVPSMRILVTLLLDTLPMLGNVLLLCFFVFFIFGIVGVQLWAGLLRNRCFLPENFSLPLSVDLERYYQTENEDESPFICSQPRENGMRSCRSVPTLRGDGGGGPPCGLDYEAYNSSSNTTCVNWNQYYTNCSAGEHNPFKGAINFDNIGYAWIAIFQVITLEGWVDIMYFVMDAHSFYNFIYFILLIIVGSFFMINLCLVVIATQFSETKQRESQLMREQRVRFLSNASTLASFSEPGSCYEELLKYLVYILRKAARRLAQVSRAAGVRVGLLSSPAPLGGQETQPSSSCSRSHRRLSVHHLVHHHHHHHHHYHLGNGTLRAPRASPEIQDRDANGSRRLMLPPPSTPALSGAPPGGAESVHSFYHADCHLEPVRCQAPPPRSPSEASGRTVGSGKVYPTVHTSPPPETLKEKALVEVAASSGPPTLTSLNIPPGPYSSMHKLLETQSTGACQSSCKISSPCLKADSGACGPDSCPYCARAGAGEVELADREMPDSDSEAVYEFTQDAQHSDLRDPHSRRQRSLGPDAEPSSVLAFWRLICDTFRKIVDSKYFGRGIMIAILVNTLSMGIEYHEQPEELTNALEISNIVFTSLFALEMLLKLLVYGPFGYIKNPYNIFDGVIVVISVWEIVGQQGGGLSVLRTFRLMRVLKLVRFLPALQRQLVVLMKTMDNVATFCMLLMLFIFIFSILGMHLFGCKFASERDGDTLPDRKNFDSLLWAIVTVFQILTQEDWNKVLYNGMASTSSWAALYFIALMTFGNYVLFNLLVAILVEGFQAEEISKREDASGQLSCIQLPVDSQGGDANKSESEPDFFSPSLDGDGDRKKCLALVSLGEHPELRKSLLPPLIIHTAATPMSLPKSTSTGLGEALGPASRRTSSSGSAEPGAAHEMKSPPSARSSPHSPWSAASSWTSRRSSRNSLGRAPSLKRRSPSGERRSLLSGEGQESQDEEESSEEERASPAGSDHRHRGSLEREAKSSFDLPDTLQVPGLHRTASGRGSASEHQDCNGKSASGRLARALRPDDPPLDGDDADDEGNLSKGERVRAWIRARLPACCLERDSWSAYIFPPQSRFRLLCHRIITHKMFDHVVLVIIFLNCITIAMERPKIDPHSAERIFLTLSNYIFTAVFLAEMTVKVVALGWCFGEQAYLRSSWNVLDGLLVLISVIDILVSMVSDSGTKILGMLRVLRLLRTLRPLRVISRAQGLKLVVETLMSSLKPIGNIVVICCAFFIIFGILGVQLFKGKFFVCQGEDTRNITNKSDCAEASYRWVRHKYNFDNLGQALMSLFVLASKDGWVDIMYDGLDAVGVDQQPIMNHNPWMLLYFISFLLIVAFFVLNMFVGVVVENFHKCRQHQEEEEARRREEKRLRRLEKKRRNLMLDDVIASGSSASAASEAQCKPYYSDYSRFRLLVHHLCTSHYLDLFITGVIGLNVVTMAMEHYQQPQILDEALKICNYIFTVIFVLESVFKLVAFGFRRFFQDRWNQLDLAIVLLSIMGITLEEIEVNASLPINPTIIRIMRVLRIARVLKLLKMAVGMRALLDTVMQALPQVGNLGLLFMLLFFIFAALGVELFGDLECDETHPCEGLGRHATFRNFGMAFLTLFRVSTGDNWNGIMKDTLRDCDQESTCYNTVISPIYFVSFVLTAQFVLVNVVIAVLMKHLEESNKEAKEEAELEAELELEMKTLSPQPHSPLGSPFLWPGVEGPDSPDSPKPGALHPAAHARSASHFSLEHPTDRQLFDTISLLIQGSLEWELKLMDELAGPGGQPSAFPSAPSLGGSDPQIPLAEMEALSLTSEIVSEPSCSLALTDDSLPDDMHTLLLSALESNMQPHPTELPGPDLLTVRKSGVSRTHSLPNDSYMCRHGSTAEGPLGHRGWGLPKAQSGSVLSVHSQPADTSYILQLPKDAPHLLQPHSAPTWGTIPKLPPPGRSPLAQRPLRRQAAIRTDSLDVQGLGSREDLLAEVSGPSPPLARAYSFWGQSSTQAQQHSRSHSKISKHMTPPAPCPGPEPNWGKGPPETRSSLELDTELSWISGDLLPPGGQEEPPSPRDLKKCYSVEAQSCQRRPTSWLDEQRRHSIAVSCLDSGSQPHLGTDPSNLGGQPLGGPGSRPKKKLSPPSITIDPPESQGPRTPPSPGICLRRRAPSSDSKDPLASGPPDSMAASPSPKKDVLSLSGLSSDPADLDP

Row | SMILES | IC50 [nM]
1 | CCC(C)(C)NC(=O)CN1CC2(CCC(C(=O)Nc3cc(F)cc(Cl)c3)CC2)C1 [Example 10, N-(3-chloro-5-fluorophenyl)-2-(2-oxo-2-(tert-pentylamino)ethyl)-2-azaspiro[3.5]nonane-7-carboxamide] | < 1000
2 | O=C(Nc1cc(F)cc(Cl)c1)C1CCC2(CC1)CN(Cc1ccc(Cl)cc1)C2 [Example 11] | 1000 to 10000
3 | CC(C)(C)NC(=O)CN1CC2(CCC(C(=O)Nc3cc(F)cc(C(F)(F)F)c3)CC2)C1 [Example 4] | < 1000
4 | CC(C)(C)NC(=O)CN1CC2(CCC(C(=O)Nc3cccc(Cl)c3)CC2)C1 [Example 2] | < 1000
5 | CC(C)(CCN1CC2(CCC(C(=O)Nc3cc(F)cc(C(F)F)c3)CC2)C1)C(F)(F)F [Example 36] | < 1000
6 | CC(C)(NC(=O)CN1CC2(CCC(C(=O)Nc3cc(F)cc(C(F)F)c3)CC2)C1)C(F)(F)F [Example 30] | < 1000

Results, then the compound that gave them:

Row | IC50 [nM] | SMILES
7 | < 1000 | CC1(NC(=O)CN2CC3(CCC(C(=O)Nc4cc(F)cc(Cl)c4)CC3)C2)CCC1 [Example 12]
8 | < 1000 | O=C(Nc1cc(F)cc(C(F)F)c1)C1CCC2(CC1)CN(CCC1CCC(F)(F)CC1)C2 [Example 37]
9 | < 1000 | O=C(Nc1cc(F)cc(Cl)c1)C1CCC2(CC1)CN(Cc1ccc(F)cc1)C2 [Example 14]
10 | < 1000 | O=C(Nc1cc(F)cc(Cl)c1)C1CCC2(CC1)CN(CCC1CCC(F)(F)CC1)C2 [Example 13]

Same assay, conditions: voltage dependent block (VDB); read-out: Cav3.1 (VDB) IC50

Row | SMILES | IC50 [nM]
11 | COCC(C)(C)NC(=O)CN1CC2(CCC(C(=O)Nc3cc(F)cc(C(F)F)c3)CC2)C1 [Example 45] | 191
12 | CC(C)(NC(=O)CN1CC2(CCC(C(=O)Nc3cccc(OC(F)F)c3)CC2)C1)C(F)(F)F [Example 69] | 235
13 | CC(C)(NC(=O)CN1CC2(CCC(CNC(=O)c3cccc(Cl)c3)CC2)C1)C(F)(F)F [Example 146] | 435
14 | Cc1cc(NC(=O)C2CCC3(CC2)CN(CC(=O)NC2(C(F)(F)F)CC2)C3)ccc1F [Example 132] | 400
15 | CCC(C)(C)NC(=O)CN1CC2(CCC(C(=O)Nc3cc(F)cc(Cl)c3)CC2)C1 [Example 10, N-(3-chloro-5-fluorophenyl)-2-(2-oxo-2-(tert-pentylamino)ethyl)-2-azaspiro[3.5]nonane-7-carboxamide] | 142
16 | Cc1cc(F)cc(C(=O)NCC2CCC3(CC2)CN(CC(=O)NC(C)(C)C)C3)c1 [Example 144] | 804
17 | COc1cc(F)cc(NC(=O)C2CCC3(CC2)CN(CC(=O)NC2(C(F)(F)F)CC2)C3)c1 [Example 82] | 238
18 | CC(C)(C)NC(=O)CN1CC2(CCC(C(=O)Nc3cccc(Cl)c3)CC2)C1 [Example 39] | 294
19 | [2H]C([2H])([2H])C(NC(=O)CN1CC2(CCC(C(=O)Nc3cc(F)cc(OC)c3)CC2)C1)(C([2H])([2H])[2H])C([2H])([2H])[2H] [Example 113] | 415
20 | N#CC1(CN2CC3(CCC(C(=O)NCc4cc(F)cc(Cl)c4)CC3)C2)CCCCC1 [Example 131] | 664
21 | COc1cc(F)cc(NC(=O)C2CCC3(CC2)CN(CC2(C#N)CCCCC2)C3)c1 [Example 96] | 814
22 | O=C(CN1CC2(CCC(C(=O)NC34CC5CC(CC(C5)C3)C4)CC2)C1)NC1(C(F)(F)F)CC1 [Example 151] | 404
23 | O=C(Nc1cc(F)cc(C(F)F)c1)C1CCC2(CC1)CN(CC(F)(F)C1CCCCC1)C2 [Example 92] | 905
24 | CC1(C)CCC(=O)N1CCN1CC2(CCC(C(=O)Nc3cc(F)cc(C(F)F)c3)CC2)C1 [Example 71] | 588
25 | CC(C)(C)NC(=O)CN1CC2(CCC(C(=O)Nc3cc(F)cc(C(F)(F)F)c3)CC2)C1 [Example 4] | 254
26 | CC(C)(NC(=O)CN1CC2(CCC(C(=O)Nc3cccc(OC(F)(F)F)c3)CC2)C1)C(F)(F)F [Example 70] | 333

Row | SMILES | IC50 [nM]
27 | O=C(CN1CC2(CCC(C(=O)Nc3cccc(Cl)c3)CC2)C1)NC1(C(F)(F)F)CC1 [Example 104] | 302
28 | O=C(CN1CC2(CCC(C(=O)Nc3ccc(F)c(OC(F)(F)F)c3)CC2)C1)NC1(C(F)(F)F)CC1 [Example 123] | 297
29 | COc1cc(Cl)cc(NC(=O)C2CCC3(CC2)CN(CC(=O)NC(C)(C)C)C3)c1 [Example 159] | 159
30 | CC(C)(C)S(=O)(=O)CCN1CC2(CCC(C(=O)Nc3cc(F)cc(C(F)F)c3)CC2)C1 [Example 87] | 855
31 | O=C(CN1CC2(CCC(CNC(=O)c3cccc(Cl)c3)CC2)C1)NC1(C(F)(F)F)CC1 [Example 147] | 534
32 | COc1cccc(NC(=O)C2CCC3(CC2)CN(CC(=O)NC2(C(F)(F)F)CC2)C3)c1 [Example 112] | 1430
33 | CC1(C(=O)NCCN2CC3(CCC(C(=O)Nc4cc(F)cc(C(F)F)c4)CC3)C2)CC1 [Example 49] | 723
34 | O=C(CN1CC2(CCC(C(=O)Nc3cc(F)cc(C(F)F)c3)CC2)C1)NC1(C(F)(F)F)COC1 [Example 86] | 344
35 | CC(C)(CCN1CC2(CCC(C(=O)Nc3cc(F)cc(C(F)F)c3)CC2)C1)C(F)(F)F [Example 36] | 327
36 | N#CC1(CN2CC3(CCC(C(=O)Nc4cccc(Cl)c4)CC3)C2)CCCCC1 [Example 103] | 544
37 | CC1(C)COCCN1C(=O)CN1CC2(CCC(C(=O)Nc3cc(F)cc(C(F)F)c3)CC2)C1 [Example 44] | 176
38 | CC(C)(NC(=O)CN1CC2(CCC(C(=O)Nc3cc(F)cc(C(F)F)c3)CC2)C1)C(F)(F)F [Example 30] | 192
39 | CC(C)(C)NC(=O)CN1CC2(CCC(C(=O)Nc3cccc(OC(F)F)c3)CC2)C1 [Example 55] | 296
40 | O=C(CN1CC2(CCC(C(=O)Nc3cccc(Cl)c3)CC2)C1)NC1(C(F)(F)F)CCC1 [Example 105] | 204
41 | O=C(CN1CC2(CCC(C(=O)NC34CCC(CC3)CC4)CC2)C1)NC1(C(F)(F)F)CC1 [Example 148] | 357

Now from value to compound:

Row | IC50 [nM] | SMILES
42 | 307 | CC1(OC(=O)NCCN2CC3(CCC(C(=O)Nc4cc(F)cc(Cl)c4)CC3)C2)CC1 [Example 81]
43 | 2270 | COc1cc(F)cc(NC(=O)C2CCC3(CC2)CN(CC2(C#N)CC2)C3)c1 [Example 138]
44 | 112 | CC1(NC(=O)CN2CC3(CCC(C(=O)Nc4cc(F)cc(Cl)c4)CC3)C2)CCC1 [Example 12]
45 | 439 | O=C(Nc1cc(F)cc(Cl)c1)C1CCC2(CC1)CN(CC(F)C1CCCC1)C2 (stereo not shown) [Example 77]
46 | 323 | O=C(Nc1cc(F)cc(C(F)F)c1)C1CCC2(CC1)CN(CCC1CCC(F)(F)CC1)C2 [Example 37]
47 | 612 | O=C(Nc1cc(F)cc(Cl)c1)C1CCC2(CC1)CN(Cc1ccc(F)cc1)C2 [Example 14]
48 | 580 | CC(C)(C)ONC(=O)CN1CC2(CCC(C(=O)Nc3cc(F)cc(Cl)c3)CC2)C1 [Example 67]
49 | 239 | O=C(Nc1cc(F)cc(Cl)c1)C1CCC2(CC1)CN(CCC1CCC(F)(F)CC1)C2 [Example 13]
50 | 1070 | O=C(Nc1cc(F)cc(Cl)c1)C1CCC2(CC1)CN(CC(F)(F)C1CCCC1)C2 [Example 78]
51 | 130 | O=C(Nc1cc(F)cc(Cl)c1)C1CCC2(CC1)CN(CC1(O)CCC(F)(F)CC1)C2 [Example 60]
52 | 802 | COc1cc(F)cc(NC(=O)C2CCC3(CC2)CN(CC(F)(F)C2CCCCC2)C3)c1 [Example 90]
53 | 572 | N#CC1(CN2CC3(CCC(C(=O)Nc4cc(Cl)cc(Cl)c4)CC3)C2)CC1 [Example 128]
54 | 597 | CC(C)(C)S(=O)(=O)CCN1CC2(CCC(C(=O)Nc3cc(F)cc(Cl)c3)CC2)C1 [Example 95]
55 | 1200 | Cc1cc(Cl)cc(NC(=O)C2CCC3(CC2)CN(CC2(C#N)CCOCC2)C3)c1 [Example 141]
56 | 2230 | N#CC1(CN2CC3(CCC(C(=O)Nc4cc(F)cc(Cl)c4)CC3)C2)CCOC1 (stereo not shown) [Example 142]
57 | 432 | N#CC1(CN2CC3(CCC(C(=O)Nc4cc(F)cc(OC(F)F)c4)CC3)C2)CCCCC1 [Example 133]
58 | 1260 | CC(C)(C#N)CN1CC2(CCC(C(=O)Nc3cc(F)cc(Cl)c3)CC2)C1 [Example 121]
59 | 146 | CC1(NC(=O)CN2CC3(CCC(C(=O)Nc4cc(F)cc(Cl)c4)CC3)C2)CC1 [Example 59]
60 | 941 | O=C(Nc1cc(F)cc(Cl)c1)C1CCC2(CC1)CN(CC(F)(F)C1CCCCC1)C2 [Example 74]
61 | 612 | N#CC1(CN2CC3(CCC(C(=O)Nc4cc(F)cc(C(F)F)c4)CC3)C2)CCCCC1 [Example 94]
62 | 1010 | N#CC1(CN2CC3(CCC(C(=O)Nc4cc(F)cc(OC(F)F)c4)CC3)C2)CC1 [Example 135]
63 | 513 | CC(C)(C)OC(=O)CN1CC2(CCC(C(=O)Nc3cc(F)cc(Cl)c3)CC2)C1 [Example 56]
64 | 440 | O=C(Nc1cc(F)cc(Cl)c1)C1CCC2(CC1)CN(CC1CCC(F)(F)CC1)C2 [Example 61]
